The values that follow come from patent US11155567B2, “Sting agonist compounds and methods of use” (Mersana Therapeutics, Inc., priority 2019, dated 2021).

Format in all cases: cell-based
For one assay, the target named is T1, Human STING (HAQ allele) (Homo sapiens, UniProt Q86WV6, G230A/H232R/R293Q/R71H).
T1 construct: THP1-Dual™ Human Monocytes cells with the homozygous HAQ allele; host or cells: THP1-Dual human monocytes
The assay can be described thus: IRF3 reporter induction in THP1-Dual Human Monocytes cells (homozygous HAQ STING allele). The settings on record: IRF3 reporter (secreted luciferase), 24 hours incubation. The procedure: (§1) THP1-Dual™ Human Monocytes cells with the homozygous HAQ allele, known to be a natural variant allele of STING occurring in 20% of the human population (Invivogen) have been engineered with two independent gene reporter systems: a secreted embryonic alkaline phosphatase (SEAP) reporter gene for NFkB activity, and secreted luciferase reporter for […] (IRF3) activity were used. 4×10^5 THP1-Dual™ cells were incubated with test Compounds in a 5-fold titration steps from 1 to 0.0128 μM in RPMI media with 10% FBS, for 24 hours at 37° C. with 5% CO2. Cell culture supernatants (20 μl) from each incubated sample was added to resuspended QUANTI-Blue™ Solution (Invivogen, 180 μl) in each well of a flat-bottom 96-well plate, then incubated for 2 h. NFkB levels were evaluated using a spectrophotometer at 620-655 nm.
(§2) To evaluate IRF3 reporter levels, cell culture supernatant (20 μl) from each incubated sample was added to QUANTI-Luc™ assay solution (Invivogen, 50 μl), and the luminescence was measured with a SpectraMax M3 spectrophotometer (Molecular Devices).
(§3) The EC50 value was determined from the dose response curve based on reference Compounds. Table 2a provides the results for IRF3 reporter induction THP1-Dual™ Human Monocytes cells and Table 2b provides the results for IRF3 reporter induction in THP1-Dual™ KI-hSTING-H232 Cells and THP1-Dual™ KI-hSTING-R232 Cells (“A” means <30 nM; “B” means ≥30 nM and <100 nM; “C” means ≥100 nM).

Assay [1] deals with T2, R232H human STING variant (Homo sapiens, UniProt Q86WV6).
T2 construct: host or cells: THP1-Dual KI-hSTING-H232 cells, generated from THP1-Dual KO-STING cells
The assay can be described thus: IRF3 reporter induction in THP1-Dual KI-hSTING-H232 Cells. The settings on record: THP1-Dual KI-hSTING-H232 Cells (R232H Haplotype). The procedure:
as §1, §2
(§4) NFkB and IRF3 reporter levels were also determined for THP1-Dual™ KI-hSTING-H232 Cells and THP1-Dual™ KI-hSTING-R232 Cells. THP1-Dual™ KI-hSTING-H232 Cells (R232H Haplotype) were generated from THP1-Dual™ KO-STING cells by knockin of the intronless coding sequence (from the ATG to TGA) of the R232H human STING variant (Invivogen). R232H has been identified as a natural variant allele of STING occurring in ˜14% of the human population. THP1-Dual™ KI-hSTING-R232 Cells (R232 Haplotype) were generated from THP1-Dual™ KO-STING cells by knockin of the intronless coding sequence (from the ATG to the TGA) of the R232 hSTING variant. Genomic studies indicate that this variant, which contains an arginine at position 232 (R232), is the most prevalent variant with an occurrence (homozygous allele) of ˜45-58% in the human population.
as §3

Another assay concerns the target T3, R232 hSTING variant (Homo sapiens, UniProt Q86WV6, H232R).
T3 construct: expressed in transfected cells; host or cells: THP1-Dual KI-hSTING-R232 cells, generated from THP1-Dual KO-STING cells
The assay can be described thus: IRF3 reporter induction in THP1-Dual KI-hSTING-R232 Cells. The settings on record: THP1-Dual KI-hSTING-R232 Cells (R232 Haplotype). The procedure: as §1, §2, §4, §3

For a further assay, the target named is T4, Human STING (Homo sapiens, UniProt Q86WV6, G230A/H232R/R293Q/R71H).
T4 construct: host or cells: THP1-Dual cells, digitonin-permeabilized
The assay can be described thus: Activation of human STING signaling in permeabilized THP1 cells, IRF3 induction. The settings on record: THP1-Dual cells permeabilized with digitonin buffer 30 minutes on ice, then 24 h in RPMI media. The procedure: as §2
4×10^5 THP1-Dual™ cells (NF-κB-SEAP and IRF-Lucia luciferase Reporter Monocytes, Invivogen) were incubated with test Compounds in a 5-fold titration steps from […] in permeabilized buffer (50 mM HEPES pH 7.0, 100 mM KCl, 3 mM MgCl2, 85 mM sucrose, 0.2% BSA, 1 mM ATP, 0.1 mM GTP, 0.1 mM TTP, 1 μg/ml digitonin) for 30 minutes on ice. Cells were then washed and incubated in a fresh RPMI media with 10% FBS at 37° C. with 5% CO2 for 24 h. Cell culture supernatants from each sample were collected and NFkB and IRF3 were evaluated as above. Table 3 provides the results for IRF3 induction (“A” means <1 μM; “B” means ≥1 μM and <50 μM; “C” means ≥50 μM).

T3 sequence (Q86WV6 whole entry H232R): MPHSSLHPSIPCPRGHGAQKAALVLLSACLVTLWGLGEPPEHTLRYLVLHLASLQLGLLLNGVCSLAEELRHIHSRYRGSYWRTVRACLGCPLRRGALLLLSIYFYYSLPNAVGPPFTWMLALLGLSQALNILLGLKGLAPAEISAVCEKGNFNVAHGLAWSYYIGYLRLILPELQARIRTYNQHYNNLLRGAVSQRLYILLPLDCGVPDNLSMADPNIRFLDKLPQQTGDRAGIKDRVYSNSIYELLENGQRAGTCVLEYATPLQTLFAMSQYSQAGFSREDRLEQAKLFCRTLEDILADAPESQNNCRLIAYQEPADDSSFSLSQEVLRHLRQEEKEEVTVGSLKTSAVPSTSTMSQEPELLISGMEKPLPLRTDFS
T1 sequence (Q86WV6 whole entry R71H/G230A/H232R/R293Q): as the sequence (Q86WV6 whole entry H232R) above, with R71H, G230A, R293Q counted along it
T4 sequence (Q86WV6 whole entry R71H/G230A/H232R/R293Q): as the sequence (Q86WV6 whole entry H232R) above, with R71H, G230A, R293Q counted along it
T2 sequence (Q86WV6 whole entry, stated change not applied): as the sequence (Q86WV6 whole entry H232R) above, with R232H counted along it

Regarding `CCc1nc(C)oc1C(=O)/N=c1\sc2cc(C(N)=O)cc(OCCCO)c2n1C/C=C/Cn1c(NC(=O)c2oc(C)nc2CC)nc2cc(C(N)=O)cnc21` [compound 146], the EC50 was not below 0.1 µM at Human STING (HAQ allele), less than 0.03 µM in assay [1], less than 0.03 µM on R232 hSTING variant and less than 1 µM on Human STING.
Turning to `CCc1nc(C)oc1C(=O)/N=c1\sc2cc(C(N)=O)cnc2n1C/C=C/Cn1c(NC(=O)c2oc(C)nc2CC)nc2cc(C(N)=O)cc(OCCCO)c21` [compound 109], the EC50 is 0.03 to 0.1 µM at Human STING (HAQ allele), less than 0.03 µM in assay [1], less than 0.03 µM on R232 hSTING variant and less than 1 µM on Human STING.
For the compound `CCc1nc(C)oc1C(=O)/N=c1\sc2cc(C(N)=O)cc(OCCCO)c2n1C/C=C/Cn1c(NC(=O)c2cc(C)nn2CC)nc2cc(C(N)=O)cnc21` [compound 148], the EC50 at Human STING (HAQ allele) is not below 0.1 µM; in assay [1] it was less than 0.03 µM; at R232 hSTING variant it was less than 0.03 µM; on Human STING it was less than 1 µM.
